Test results reported in a melting point compilation (Tetko et al.).

First: COC(=O)c1sc2ncc(C=O)cc2c1C
Second: CC(=O)c1sc2nc(C)cc(C)c2c1N
The melting point of the first is higher: 199 to 201 °C for the first, 174 to 176 °C for the second.

Compared with NCCNc1ccncc1, COC(=O)Nc1ccc(CN)cc1 is lower in melting point: 118 to 120 °C for the first, 103 to 105 °C for the second.

First: N#CC1(NC(=O)c2ccccc2)CCCC1
Second: Cc1cccc(C2(C(=O)O)CC2)c1
The melting point of the first is higher: 130 to 132 °C for the first, 107 to 109 °C for the second.

First: COc1ccc(-c2csc(C)n2)cc1OC
Second: COc1ccc(C#N)cc1C
The melting point of the first is higher: 74 to 76 °C for the first, 49 to 51 °C for the second.

First: Fc1cc(Br)cc2c(Cl)cc(C(F)(F)F)nc12
Second: COC(=O)c1cc(Cl)c(NC(=O)OCC(F)(F)F)cc1OC
The melting point of the first is lower: 91 to 93 °C for the first, 100 to 102 °C for the second.

Compared with N#CC1(N2CCN(Cc3ccccc3)CC2)CCOCC1, NC(=NO)c1ccc(CN2CCOCC2)cc1 is higher in melting point: 105 to 107 °C for the first, 158 to 160 °C for the second.

Compared with CN(C)S(=O)(=O)c1ccc(N2CCOCC2)c(N)c1, Nc1ccc(F)c(N2CCS(=O)(=O)CC2)c1 is higher in melting point: 174 to 176 °C for the first, 181 to 183 °C for the second.

First: Cn1cc(CC2CC(=O)NC2=O)cn1 (centres undefined)
Second: O=C1CC(C(=O)O)c2ccccc2N1 (centres undefined)
The melting point of the first is lower: 116 to 118 °C for the first, 211 to 213 °C for the second.

Compared with CCCc1c(C(=O)O)cnn1-c1cccc(F)c1, O=C(O)c1cnn(-c2ccccc2)c1C1CC1 is higher in melting point: 97 to 99 °C for the first, 173 to 175 °C for the second.

Compared with Cc1oc(C(N)=O)cc1C(=O)CCl, CCS(=O)(=O)c1ccc(NC(=O)CCl)c(O)c1 is higher in melting point: 197 to 199 °C for the first, 207 to 209 °C for the second.

First: Nc1ccc(C(=O)Nc2ccccc2)cc1
Second: O=C(O)c1ccc(C(=O)Nc2ccccc2)cc1
The melting point of the first is lower: 134 to 136 °C for the first, 309 to 311 °C for the second.

Compared with CCn1c(=O)n(CCC(=O)O)c2ccccc21, O=C(O)CCC(=O)N1CC(=O)Nc2ccccc21 is higher in melting point: 179 to 181 °C for the first, 181 to 183 °C for the second.

Compared with Cc1ccc(S(C)(=O)=O)cc1S(=O)(=O)Cl, O=C(O)c1ccc(S(=O)(=O)Cl)c(Br)c1 is higher in melting point: 136 to 138 °C for the first, 206 to 208 °C for the second.

First: NC(=O)CCc1ccc([N+](=O)[O-])cc1[N+](=O)[O-]
Second: COc1ccc([N+](=O)[O-])cc1CCl
The melting point of the first is higher: 115 to 117 °C for the first, 78 to 80 °C for the second.

Compared with COc1cc(F)c(N)cc1F, COc1cc(SC)ccc1C(=O)O is higher in melting point: 80 to 82 °C for the first, 111 to 114 °C for the second.

Compared with O=C1NCCS1, O=C1CCNc2ccc(F)cc21 is lower in melting point: 51 to 53 °C for the first, 49 to 51 °C for the second.

First: Cn1cc(S(=O)(=O)Cl)cc1C(=O)O
Second: N#CCCNS(=O)(=O)c1ccc(C(=O)O)cc1
The melting point of the first is lower: 164 to 166 °C for the first, 240 to 242 °C for the second.

First: N#Cc1cccc(CNc2ccc3[nH]c(=O)[nH]c3c2)c1
Second: N#Cc1cccc(OCCCCC(=O)O)c1
The melting point of the first is higher: 261 to 263 °C for the first, 78 to 80 °C for the second.

First: O=C(O)Cc1cc2ccccc2o1
Second: CCOC(=O)c1nc(-c2ccccc2)oc1N
The melting point of the first is lower: 89 to 91 °C for the first, 181 to 183 °C for the second.

First: Cc1ccc(N)c(-c2nc(C3CC3)no2)c1
Second: Cc1nc(-c2cccc(N)c2)n[nH]1
The melting point of the first is higher: 87 to 89 °C for the first, 56 to 58 °C for the second.

First: O=C(O)c1ccc(Nc2ncnc3ccccc23)cc1
Second: O=C(Nc1ccc(O)cc1)c1ccc(Cl)cc1
The melting point of the first is higher: 345 to 347 °C for the first, 246 to 248 °C for the second.

Compared with CC(C)NC(=O)c1cn[nH]c1N, CNC(=O)c1ccc(N)cc1Cl is lower in melting point: 179 to 181 °C for the first, 147 to 149 °C for the second.

First: CC(=CC(=O)O)c1cccc(Cl)c1
Second: O=C(O)c1c(F)cccc1Br
The melting point of the first is higher: 156 to 158 °C for the first, 153 to 155 °C for the second.

First: Cc1ccccc1N(CC(=O)O)S(C)(=O)=O
Second: O=C(O)CN(CC(=O)O)Cc1ccccc1
The melting point of the first is lower: 109 to 111 °C for the first, 200 to 202 °C for the second.

Compared with O=C(O)c1sc2cc(Br)ccc2c1Cl, CN(C)c1ccc(/C=C/c2cc(C(=O)O)c3cc(Br)ccc3n2)cc1 is higher in melting point: 286 to 288 °C for the first, 298 to 300 °C for the second.

First: O=C1CSC(c2ccc(F)cc2)N1C1CC1 (centres undefined)
Second: NC1CCCOc2ccccc21 (centres undefined)
The melting point of the first is higher: 225 to 227 °C for the first, 69 to 71 °C for the second.

Compared with Cc1cc(N)ccc1C(=O)N(C)C, CN(C)C(=O)c1cc(Oc2ccc(N)cc2)ccn1 is lower in melting point: 162 to 164 °C for the first, 113 to 115 °C for the second.

First: NC(=S)Nc1cccc2ncccc12
Second: Nc1cccc(C(=O)NCc2ccccn2)c1
The melting point of the first is higher: 223 to 225 °C for the first, 119 to 121 °C for the second.

Compared with O=C(O)c1ccccc1C(=O)c1cccs1, O=C(Nc1ccc(O)cc1C(=O)O)OCc1ccccc1 is higher in melting point: 141 to 143 °C for the first, 176 to 178 °C for the second.

Compared with Nc1cccc(OCc2ccc(F)cc2)c1, O=C(O)Cc1cccc(OCc2cccnc2)c1 is higher in melting point: 87 to 89 °C for the first, 139 to 141 °C for the second.

First: NC(=O)CN1CC(O)CC1=O (centres undefined)
Second: NC(=O)CN1CC(C(=O)O)CC1=O (centres undefined)
The melting point of the first is lower: 133 to 135 °C for the first, 169 to 171 °C for the second.

Compared with Nc1ccc(S(=O)(=O)CC2CCOC2)cc1 (centres undefined), NC(=O)CS(=O)(=O)c1ccc(C(=O)O)cc1 is higher in melting point: 118 to 120 °C for the first, 255 to 257 °C for the second.

First: Clc1cc(N2CCSCC2)ncn1
Second: Clc1ccnc2ccsc12
The melting point of the first is higher: 134 to 136 °C for the first, 32 to 34 °C for the second.

First: Cc1ccc(-n2c(C)ccc2C)c(C(=O)O)c1
Second: Cc1ccc(C)c(-n2cnc(O)n2)c1
The melting point of the first is lower: 157 to 159 °C for the first, 166 to 168 °C for the second.

First: COc1ccccc1NC(=O)c1cc2ccccc2cc1O
Second: O=C(CCc1ccccc1)Cc1ccccc1
The melting point of the first is higher: 161 to 164 °C for the first, 41 to 43 °C for the second.

First: O=C(O)CSCc1ccc(Cl)s1
Second: O=C(O)CCCOc1cccc(F)c1
The melting point of the first is higher: 66 to 68 °C for the first, 51 to 53 °C for the second.

Compared with CN(C)c1ccnc(N)n1, COc1ccc(CCc2nnc(N)o2)cc1 is higher in melting point: 157 to 159 °C for the first, 216 to 218 °C for the second.

Compared with Cc1nnc(S)n1N, Nc1nnc(Cc2ccc(Cl)cc2)o1 is lower in melting point: 186 to 188 °C for the first, 167 to 169 °C for the second.

Compared with Nc1nncn1Cc1ccccc1, NC(=O)Cc1ccccc1Cl is lower in melting point: 210 to 212 °C for the first, 178 to 180 °C for the second.

First: O=C(O)CCC(=O)c1ccc2c(c1)CCCC2
Second: O=S(=O)(Cl)c1ccc2c(c1)CCCC2
The melting point of the first is higher: 122 to 124 °C for the first, 44 to 46 °C for the second.

Compared with COC(=O)Cc1cc(=O)[nH]c(S)n1, CC(=O)N(c1nc(CCl)cs1)C1CC1 is lower in melting point: 185 to 187 °C for the first, 56 to 58 °C for the second.

First: C=CCc1ccc(OCC(=O)O)c(OC)c1
Second: COCCOc1ccc(C(=O)O)cc1
The melting point of the first is higher: 169 to 172 °C for the first, 151 to 153 °C for the second.

First: N#CCc1nccn1CC(F)(F)F
Second: O=C(O)c1nccn2ccnc12
The melting point of the first is lower: 106 to 108 °C for the first, 167 to 169 °C for the second.

Compared with O=C(O)c1coc(C#Cc2ccccc2)c1, O=C(O)c1cccc(Oc2nccs2)c1 is lower in melting point: 183 to 185 °C for the first, 102 to 104 °C for the second.

First: COc1c(Br)cc(Br)cc1C=O
Second: COc1cc(NS(=O)(=O)c2ccc(N)cc2)cc(OC)c1
The melting point of the first is lower: 93 to 96 °C for the first, 153 to 155 °C for the second.

Compared with CC(C)(C)Nc1ccc(C(N)=NO)nc1, CNCC(O)COc1ccc2c(c1)OCO2 (centres undefined) is lower in melting point: 139 to 141 °C for the first, 93 to 95 °C for the second.

First: CC(C)NC(=O)N1CCC(C(=O)O)CC1
Second: O=C(O)c1ccc(NC(=O)N2CCCCC2)c(F)c1
The melting point of the first is lower: 137 to 139 °C for the first, 179 to 181 °C for the second.

First: O=C(O)CCCS(=O)c1ccc(Br)cc1 (centres undefined)
Second: CS(=O)(=O)NCc1cccc(CN)c1
The melting point of the first is higher: 121 to 123 °C for the first, 70 to 72 °C for the second.

Compared with OC(Cn1cncn1)c1ccc(Cl)cc1 (centres undefined), CC(C)c1ccc(-c2nnn[nH]2)cc1 is higher in melting point: 111 to 113 °C for the first, 186 to 188 °C for the second.

First: CC1CN(C(=O)CCl)CC(C)O1 (centres undefined)
Second: NC1CCN(C(=O)C2CCCCC2)C1 (centres undefined)
The melting point of the first is lower: 61 to 63 °C for the first, 72 to 74 °C for the second.

First: COc1ccc(C=CC(=O)O)cc1S(=O)(=O)N1CCCCC1
Second: COC(=O)c1scnc1C1CC1
The melting point of the first is higher: 219 to 221 °C for the first, 59 to 61 °C for the second.

First: NNC(=S)NCC(N)=O
Second: NNC(=O)C1COCCO1 (centres undefined)
The melting point of the first is higher: 153 to 155 °C for the first, 106 to 108 °C for the second.
